The record followed here is US12377102B2, “Compounds for the prevention and treatment of medical disorders and uses thereof” (GALECTIN SCIENCES, LLC, priority 2017, dated 2025).

One experiment addresses T1, recombinant human Gal-3 (Homo sapiens, UniProt P17931).
T1 construct: shifts of whole molecule of Gal-3 (Gal-3 FL); made in house; host or cells: E. coli BL21 (DE3)
As to the kind of experiment: 1H-15N HSQC NMR shifts of 15N-labeled Gal-3 on compound addition. The following applies: full Gal-3. Type of experiment: binding. The method, then: Heteronuclear ^15N NMR spectroscopy was used to evaluate the interaction of compounds described herein with galectin molecules, including but not limited to Gal-3, to assess the interaction residues on the Gal-3 molecule.
NMR experiments were carried out at 30° C. on Bruker 600 MHz, 700 MHz or 850 MHz spectrometers equipped with H/C/N triple-resonance probes and x/y/z triple-axis pulse field gradient units. […] Raw data were converted and processed by using NMRPipe and were analyzed by using NMRview.

Experiment [1] deals with galectin 9 interaction with integrin αMβ2 (Homo sapiens, UniProt O00182). The experiment in a line: ELISA galectin 9 interaction with integrin αMβ2. Type of experiment: binding. The following applies: FIG. 8E. An excerpt:
(§1) Activated ELISA plate is coated with αMβ2 integrin.
Background: In an ELISA, binding on a coated surface is turned into a signal by an enzyme label.

The target in the next experiment is Gal-3 CRD (Homo sapiens, UniProt P17931). The experiment in a line: Fluorescence Polarization with fluorescein-labeled carbohydrate probe. The format is binding. The conditions noted are these: FITC linked lactose derivative probe. For orientation: In fluorescence polarisation assays a small probe gives low polarisation when free and higher when bound to something large.

Experiment [2] deals with Gal-3 binding to Integrin αMβ2 (Homo sapiens, UniProt P17931). The experiment in a line: ELISA Gal-3 binding to integrin αMβ2.
Source text: Illustrations of functional assays with Gal-3 binding pairing specific antibody with a Glycoprotein ligand, e.g. Gal-3 Binding-Protein (Gal-3 BP), Integrins, etc. (FIGS. 7A and 7B).
as §1

Experiment [3] addresses Gal-3 binding to IGF-R1 (gene IGF1R) (Homo sapiens, UniProt P17931). The experiment in a line: ELISA Gal-3 binding to Insulin Like Growth Factor 1 Receptor. The following applies: FIGS. 12G-1 to 12G-3. The protocol: Using the ELISA composition assay described herein, in which the compounds were incubated with Gal-3 and the binding of Gal-3 with IGF-Receptor was tested.

The target of experiment [4] is galectin 1 interaction with integrin αMβ2 (Homo sapiens, UniProt P09382). As to the kind of experiment: ELISA galectin 1 interaction with integrin αMβ2. The format is binding. The conditions noted are these: FIG. 8E.
Chain of galectin 1 interaction with integrin αMβ2 (P09382 2-135 limits assumed): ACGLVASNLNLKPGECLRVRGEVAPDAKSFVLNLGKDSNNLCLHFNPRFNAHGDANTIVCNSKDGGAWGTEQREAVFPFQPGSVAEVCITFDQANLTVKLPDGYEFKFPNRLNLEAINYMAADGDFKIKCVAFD

Chain of Gal-3 binding to Integrin αMβ2 (P17931 2-250 limits assumed): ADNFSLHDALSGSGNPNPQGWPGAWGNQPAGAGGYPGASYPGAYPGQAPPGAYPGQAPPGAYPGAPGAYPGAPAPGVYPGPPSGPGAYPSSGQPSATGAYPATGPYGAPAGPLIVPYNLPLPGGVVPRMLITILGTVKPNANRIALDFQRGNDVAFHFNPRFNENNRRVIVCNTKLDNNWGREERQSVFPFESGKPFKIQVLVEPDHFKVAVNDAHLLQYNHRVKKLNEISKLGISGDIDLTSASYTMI
T1 sequence (P17931 whole entry): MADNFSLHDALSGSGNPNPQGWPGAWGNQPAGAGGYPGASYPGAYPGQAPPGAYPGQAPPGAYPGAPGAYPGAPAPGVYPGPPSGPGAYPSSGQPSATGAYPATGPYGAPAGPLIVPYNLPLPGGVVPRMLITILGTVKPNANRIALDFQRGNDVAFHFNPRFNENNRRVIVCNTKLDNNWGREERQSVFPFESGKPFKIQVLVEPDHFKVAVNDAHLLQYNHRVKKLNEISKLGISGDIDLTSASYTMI
Chain of galectin 9 interaction with integrin αMβ2 (O00182 whole entry): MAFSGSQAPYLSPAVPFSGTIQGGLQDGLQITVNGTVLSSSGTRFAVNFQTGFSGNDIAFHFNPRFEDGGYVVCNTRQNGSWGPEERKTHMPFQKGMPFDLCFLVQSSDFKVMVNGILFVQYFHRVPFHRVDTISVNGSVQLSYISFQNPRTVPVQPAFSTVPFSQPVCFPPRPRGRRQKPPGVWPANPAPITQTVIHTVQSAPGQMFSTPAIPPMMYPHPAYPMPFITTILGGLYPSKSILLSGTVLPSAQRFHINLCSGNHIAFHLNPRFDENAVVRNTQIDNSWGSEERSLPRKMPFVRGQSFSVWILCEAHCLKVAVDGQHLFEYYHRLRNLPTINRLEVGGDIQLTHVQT
Chain of Gal-3 binding to IGF-R1 (gene IGF1R) (P17931 2-250 limits assumed): as the sequence (P17931 2-250 limits assumed) above
Chain of Gal-3 CRD (P17931 whole entry): as the sequence (P17931 whole entry) above

In the case of `Cc1ccc(COc2ccc(C=C3CCn4c3nc(=O)c3ccccc34)cc2)cc1` [AGS-0144, 3-({4-[(4-methylphenyl)methoxy]phenyl}methylidene)-1H,2H,3H,5H-pyrrolo[1,2-a]quinazolin-5-one], at recombinant human Gal-3, the “interaction with amino-acids located in the CRD site (HSQC NMR)” value is listed as “have not directly interact with these amino-acids”.
Turning to `OC[C@H]1O[C@@H](S[C@@H]2O[C@H](CO)[C@H](O)[C@H](n3cc(-c4cccc(F)c4)nn3)[C@H]2O)[C@H](O)[C@@H](n2cc(-c3cccc(F)c3)nn2)[C@H]1O` [TD-139], the “inhibition of galectin 9 interaction with integrin αMβ2” value in experiment [1] was “inhibited”. For the same molecule, the “Fluorescent Polarization inhibition signal” value on Gal-3 CRD is reported as “strong signal”. In addition, the “interaction with amino-acids located in the CRD site (HSQC NMR)” value at recombinant human Gal-3 is given as “create disturbances of amino-acid located in the CRD site”. In addition, in experiment [2] (ELISA with integrin αMβ2, FIGS. 8D and 8E), the “specificity for Gal-3 vs other galectins (1, 8, 9)” value is given as “non-specific interaction”. Besides, the “inhibition of Integrin αMβ2 interaction with Gal-3” value in experiment [2] (ELISA, FIGS. 8B, 8C, 12C) is “inhibition”. In addition, the “effect on Gal-3 binding to IGF-R1” value in experiment [3] is listed as “cause inhibition”. Also, the “inhibition of galectin 1 interaction with integrin αMβ2” value in experiment [4] is “inhibited”.
